According to patent publication US20220177471A1, “N-1 BRANCHED ALKYL SUBSTITUTED IMIDAZO[4,5-C]QUINOLINE COMPOUNDS, COMPOSITIONS, AND METHODS” (3M INNOVATIVE PROPERTIES COMPANY, priority 2019, published 2022):
Read-outs that look alike come from different tables or passages of the source.

Tested on: Human peripheral blood mononuclear cells (PBMC)
Experiment: Cytokine induction in human cells (PBMC), cytokines by ELISA / multiplex bead assay
Type: cell-based
Settings: for minimal effective concentration: human PBMC, 21-24 hours, lowest concentration giving cytokine level at least 2x negative control; for cytokine production (statement in words): IFN-alpha, IFN-gamma, TNF-alpha
Procedure: Whole blood was obtained from healthy human donors and collected by venipuncture into vacutainer tubes or syringes containing EDTA. Human peripheral blood mononuclear cells (PBMC) were purified from the whole blood by density gradient centrifugation. Histopaque 1077 (15 mL, Sigma, St. Louis, Mo.) was transferred to 6×50 mL sterile polypropylene conical tubes. The Histopaque was overlayed with 15-25 mL of blood diluted 1:2 in Hank's Balanced Salts Solution (HBSS) (Gibco, Life Technologies, Grand Island, N.Y.). The tubes were then centrifuged at 1370 revolutions per minute (rpm) for 30 minutes at 20° C., with no brake (400×g, GH 3.8 A Rotor).
The interface (buffy coat) containing the PBMC was collected and placed in a new sterile 50 mL conical polypropylene centrifuge tube. The PBMC were mixed with an equal volume of HBSS (about 20 mL from the interface and about 20 mL of HBSS), and then centrifuged at 1090 rpm, 10 minutes, 20° C., with brake (270×g, GH 3.8 A Rotor). After completing centrifugation, the cells were resuspended in 2-3 mL ACK Red blood cell lysis buffer (ammonium chloride potassium solution, Gibco, Life Technologies) and incubated for 2-5 minutes at 20° C. Next, HBSS (40 mL) was added to the cells, and the sample was centrifuged at 270×g for 10 minutes at 20° C. The supernatant was decanted, and the cell pellet was resuspended in 5 mL AIM V Medium (Gibco, Life Technologies). Cell aggregates and debris were removed by filtering the cell solution through a BD Falcon 70 micron nylon cell strainer (BD Biosciences, San Jose, Calif.).
The number of viable cells was determined by counting with a Miltenyi FACS instrument (Miltenyi Biotec Inc., San Diego, Calif.) or by using a hemacytometer. For determining cell viability with a hemacytometer, the cells were diluted 1/10 in 0.4% trypan blue and HBSS (specifically, 50 microliter of trypan blue+40 microliter of HBSS+10 microliter of cell solution were added to a microfuge tube and mixed). Ten microliters of the diluted cells were then applied to the hemacytometer, and the number of viable PBMC were determined by microscopy.
The PBMC sample was then resuspended in 96-well plates at a concentration of 8×10^5 cells/well in 0.1 mL of AIM-V medium. Each compound was solubilized in dimethyl sulfoxide (DMSO) to create a 3 mM stock solution. The stock solution was then further diluted with AIM-V medium to prepare the serial dilutions. The diluted compound (100 microliters) was then transferred to the PBMCs to produce testing sets with final compound concentrations of either 30, 10, 3.3, 1.1, 0.37, 0.12, 0.04, 0.01 micromolar (testing set A); 100, 30, 10, 3.3, 1.1, 0.37, 0.12, 0.04, 0.01, 0.005 micromolar (testing set B); 100, 33.3, 11.1, 3.7, 1.2, 0.41 micromolar (testing set C); or 100, 50, 30, 10, 3.3, 1.1, 0.37, 0.12, 0.04 micromolar (testing set D). The plates also had both positive and negative controls. The negative control wells contained only AIM-V medium with no example compound. The positive control wells contained a control set of imiquimod serially diluted to concentrations of either 30, 10, 3.3, 1.1, 0.37, 0.12, 0.04, 0.01 micromolar (control set A); 100, 30, 10, 3.3, 1.1, 0.37, 0.12, 0.04, 0.01, 0.005 micromolar (control set B); 100, 33.3, 11.1, 3.7, 1.2, 0.41 micromolar (control set C); or 100, 50, 30, 10, 3.3, 1.1, 0.37, 0.12, 0.04 micromolar (control set D). The concentrations used in the control set were selected to match the concentrations used in the testing set. The plates were then cultured at 37° C./5% CO2 for 21-24 hours. Cell-free supernatants were harvested by centrifuging the 96-well plates at 2100 rpm, 23° C. for 10 minutes. Approximately 160 microliters of the supernatant was then stored in a NUNC 96-well plate, covered with the compression cap and stored at −80° C. until the cytokine analysis was done.
IFN-alpha cytokine levels (picograms/mL) were measured by ELISA (human IFN-alpha, pan specific, Mabtech, Cincinnati, Ohio). […]

[1] = ELISA, read-out: MEC to Induce Cytokine: IFN-alpha
[2] = multiplex bead assay, read-out: MEC to Induce Cytokine: IFN-gamma
[3] = multiplex bead assay, read-out: MEC to Induce Cytokine: TNF-alpha

| Structure (SMILES) | minimal effective concentration [1] [µM] | minimal effective concentration [2] [µM] | minimal effective concentration [3] [µM] | cytokine production (statement in words) |
| --- | --- | --- | --- | --- |
| CC(C)Cn1cnc2c(N)nc3ccccc3c21 [Comparative Example 1, 1-isobutylimidazo[4,5-c]quinolin-4-amine, reference compound] | 11.1 | 11.1 | 11.1 |  |
| CC(C)(O)Cn1cnc2c(N)nc3ccccc3c21 [Comparative Example 2, 1-(4-aminoimidazo[4,5-c]quinolin-1-yl)-2-methyl-propan-2-ol, reference compound] | 10 | 10 | 10 |  |
| CC(C)[C@@H](C)n1cnc2c(N)nc3ccccc3c21 [Example 1, 1-[(1R)-1,2-dimethylpropyl]imidazo[4,5-c]quinolin-4-amine] | 3.7 | 3.7 | 1.2 |  |
| CC(C)[C@H](C)n1cnc2c(N)nc3ccccc3c21 [Example 2, 1-[(1S)-1,2-dimethylpropyl]imidazo[4,5-c]quinolin-4-amine] | > 100 | > 100 | > 100 | inactive toward cytokine production |
| C[C@@H](n1cnc2c(N)nc3ccccc3c21)C(C)(C)C [Example 3, 1-[(1R)-1,2,2-trimethylpropyl]imidazo[4,5-c]quinolin-4-amine] | 1.2 | 1.2 | 1.2 |  |
| C[C@H](n1cnc2c(N)nc3ccccc3c21)C(C)(C)C [Example 4, 1-[(1S)-1,2,2-trimethylpropyl]imidazo[4,5-c]quinolin-4-amine] | > 100 | > 100 | > 100 | inactive toward cytokine production |
| C[C@H](C1CCCCC1)n1cnc2c(N)nc3ccccc3c21 [Example 5, 1-[(1R)-1-cyclohexylethyl]imidazo[4,5-c]quinolin-4-amine] | 0.41 | 1.2 | 0.41 |  |
| C[C@@H](C1CCCCC1)n1cnc2c(N)nc3ccccc3c21 [Example 6, 1-[(1S)-1-cyclohexylethyl]imidazo[4,5-c]quinolin-4-amine] | > 100 | > 100 | > 100 | inactive toward cytokine production |
| CCCC[C@H](C(C)C)n1cnc2c(N)nc3ccccc3c21 [Example 7, 1-[(1R)-1-isopropylpentyl]imidazo[4,5-c]quinolin-4-amine] | 0.12 | > 30 | 0.12 |  |
| CCCC[C@@H](n1cnc2c(N)nc3ccccc3c21)C(C)(C)C [Example 8, 1-[(1R)-1-tert-butylpentyl]imidazo[4,5-c]quinolin-4-amine] | 0.04 | > 30 | 0.04 |  |
| C[C@@H](n1cnc2c(N)nc3ccccc3c21)C(C)(C)O [Example 9, (3R)-3-(4-aminoimidazo[4,5-c]quinolin-1-yl)-2-methyl-butan-2-ol] | 3.3 | 3.3 | 10 |  |
| C[C@H](n1cnc2c(N)nc3ccccc3c21)C(C)(C)O [Example 10, (3S)-3-(4-aminoimidazo[4,5-c]quinolin-1-yl)-2-methyl-butan-2-ol] | > 30 | > 30 | > 30 | inactive toward cytokine production |
| CC[C@@H](n1cnc2c(N)nc3ccccc3c21)C(C)(C)O [Example 11, (3R)-3-(4-aminoimidazo[4,5-c]quinolin-1-yl)-2-methyl-pentan-2-ol] | 1.1 | 3.3 | 1.1 |  |
| CC[C@H](n1cnc2c(N)nc3ccccc3c21)C(C)(C)O [Example 12, (3S)-3-(4-aminoimidazo[4,5-c]quinolin-1-yl)-2-methyl-pentan-2-ol] | > 100 | > 100 | > 100 | inactive toward cytokine production |
| CCC[C@@H](n1cnc2c(N)nc3ccccc3c21)C(C)(C)O [Example 13, (3R)-3-(4-aminoimidazo[4,5-c]quinolin-1-yl)-2-methyl-hexan-2-ol] | ≤ 0.41 | ≤ 0.41 | ≤ 0.41 |  |
| CCC[C@H](n1cnc2c(N)nc3ccccc3c21)C(C)(C)O [Example 14, (3S)-3-(4-aminoimidazo[4,5-c]quinolin-1-yl)-2-methyl-hexan-2-ol] | > 30 | > 30 | > 30 | inactive toward cytokine production |
| CCCC[C@@H](n1cnc2c(N)nc3ccccc3c21)C(C)(C)O [Example 15, (3R)-3-(4-aminoimidazo[4,5-c]quinolin-1-yl)-2-methyl-heptan-2-ol] | ≤ 0.04 | 0.12 | 0.12 |  |
| CCCC[C@H](n1cnc2c(N)nc3ccccc3c21)C(C)(C)O [Example 16, (3S)-3-(4-aminoimidazo[4,5-c]quinolin-1-yl)-2-methyl-heptan-2-ol] | > 100 | > 100 | > 100 | inactive toward cytokine production |
| CC(C)C[C@@H](n1cnc2c(N)nc3ccccc3c21)C(C)(C)O [Example 17, (3R)-3-(4-aminoimidazo[4,5-c]quinolin-1-yl)-2,5-dimethyl-hexan-2-ol] | 10 | 10 | 10 |  |
| CC(C)C[C@H](n1cnc2c(N)nc3ccccc3c21)C(C)(C)O [Example 18, (3S)-3-(4-aminoimidazo[4,5-c]quinolin-1-yl)-2,5-dimethyl-hexan-2-ol] | > 100 | > 100 | > 100 | inactive toward cytokine production |
| CCC(O)(CC)[C@@H](C)n1cnc2c(N)nc3ccccc3c21 [Example 19, (2R)-2-(4-aminoimidazo[4,5-c]quinolin-1-yl)-3-ethyl-pentan-3-ol] | 1.1 | 3.3 | 1.1 |  |
| C[C@@H](n1cnc2c(N)nc3ccccc3c21)C(C)(C)F [Example 20, 1-[(1R)-2-fluoro-1,2-dimethyl-propyl]imidazo[4,5-c]quinolin-4-amine] | 10 | 30 | 10 |  |
